Results: US10611740B2, “Aryl dihydro-2H-benzo[b][1,4]oxazine sulfonamide and related compounds for use as agonists of RORγ and the treatment of disease” (Lycera Corporation, priority 2015, dated 2020)
pEC50: −log10 of the molar value.

Assays:
Gal4-RORγ-LBD = biological target: T1, Gal4-RORγ-LBD (Homo sapiens, UniProt P51449); assay: Gal4-RORγ Luciferase Reporter Assay in HEK-293T Cells; format: cell-based; conditions: HEK-293 cells
T1 construct: expressed in transfected cells; host or cells: HEK-293 cells (pcDNA3.1neo plasmid)
T1 sequence (P51449 269-508 limits assumed): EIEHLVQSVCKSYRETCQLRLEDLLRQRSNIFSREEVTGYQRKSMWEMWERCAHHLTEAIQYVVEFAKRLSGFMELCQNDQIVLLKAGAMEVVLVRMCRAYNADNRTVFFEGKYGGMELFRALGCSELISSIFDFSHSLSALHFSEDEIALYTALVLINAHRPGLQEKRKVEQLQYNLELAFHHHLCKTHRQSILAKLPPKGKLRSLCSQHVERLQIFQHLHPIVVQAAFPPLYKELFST
Procedure, shortened: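 HEK-293 cells were transiently co-transfected with Gal4-RORγ-LBD and pGL4.31 Gal4-luciferase, with ursolic acid added at 2 μM final. Compounds were incubated overnight at 37° C. in 0.2% DMSO and luminescence read with One-Glo. Max Response is the upper plateau of a 4-parameter logistic fit, with signal lacking ursolic acid or compound set to 100.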

RORγ-LBD = biological target: T2, RORγ-LBD (Homo sapiens, UniProt P51449); assay: RORγ-Ligand Binding Domain (LBD) TR-FRET Assay; format: biochemical;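 on TR-FRET Assay Max Response: 665/615 nm ratio relative to signal without ursolic acid or compound set at 100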
T2 construct: made in house; host or cells: SF9 cells (baculovirus)
T2 sequence (P51449 269-508 limits assumed): T1 sequence (P51449 269-508 limits assumed)
Procedure, shortened: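 His-tagged RORγ-LBD from SF9 baculovirus lysate, ~3 nM final, in 50 mM Tris pH 7.0, 50 mM KCl, 1 mM EDTA, 0.1 mM DTT, 0.01% BSA. Biotinylated SRC1 LXXLL peptide at 200 nM final with 2 μM ursolic acid; TR-FRET read-out, 1% DMSO final.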

[1] = luciferase reporter, with 2 μM ursolic acid

| SMILES | pEC50 (Gal4-RORγ-LBD; [1]) | pEC50 (RORγ-LBD) | pEC50 (Gal4-RORγ-LBD; 2 μM ursolic acid) | Gal4-RORγ Assay Max Response (Gal4-RORγ-LBD; [1]) | TR-FRET Assay Max Response (RORγ-LBD) | Gal4-RORγ Assay Max Response (Gal4-RORγ-LBD; 2 μM ursolic acid) |
| --- | --- | --- | --- | --- | --- | --- |
| CC(C)(O)C(=O)NCC[C@H]1CN(S(=O)(=O)c2cccc(C(F)(F)F)c2)c2cc(-c3cc(F)ccc3F)ccc2O1 [Compound 29, (S)—N-(2-(6-(2,5-difluorophenyl)-4-((3-(trifluoromethyl)phenyl)sulfonyl)-3,4-dihydro-2H-benzo[b][1,4]oxazin-2-yl)ethyl)-2-hydroxy-2-methylpropanamide] | > 6.30 | > 6.30 |  | ** (The symbol “**” indicates a value in the range of greater than 90 to 150) | **** (The symbol “****” indicates a value greater than 200) |  |
| CCc1cccc(-c2ccc3c(c2)N(S(=O)(=O)c2cccc(C(F)(F)F)c2)C[C@H](CCC(=O)O)O3)c1 [Compound 4AH, (S)-3-(6-(3-ethylphenyl)-4-((3-(trifluoromethyl)phenyl)-sulfonyl)-3,4-dihydro-2H-benzo[b][1,4]oxazin-2-yl)propanoic acid] | > 6.30 | > 6.30 |  | ** (The symbol “**” indicates a value in the range of greater than 90 to 150) | **** (The symbol “****” indicates a value greater than 200) |  |
| Cc1c(F)cc(F)cc1-c1ccc2c(c1)N(S(=O)(=O)c1cccc(C(F)(F)F)c1)C[C@H](CCC(=O)O)O2 [Compound 4AJ, (S)-3-(6-(3,5-difluoro-2-methylphenyl)-4-((3-(trifluoromethyl)phenyl)-sulfonyl)-3,4-dihydro-2H-benzo[b][1,4]oxazin-2-yl)propanoic acid] | > 6.30 | > 6.30 |  | ** (The symbol “**” indicates a value in the range of greater than 90 to 150) | **** (The symbol “****” indicates a value greater than 200) |  |
| Cn1cnc(-c2ccc3c(c2)N(S(=O)(=O)c2cccc(C(F)(F)F)c2)C[C@H](CCC(=O)O)O3)n1 [Compound 4M, (S)-3-(6-(1-methyl-1H-1,2,4-triazol-3-yl)-4-((3-(trifluoro-methyl)phenyl)sulfonyl)-3,4-dihydro-2H-benzo[b][1,4]-oxazin-2-yl)propanoic acid] | < 5.00 | > 6.30 |  | * (The symbol “*” indicates a value in the range of 25 to 90) | **** (The symbol “****” indicates a value greater than 200) |  |
| Cc1ncccc1-c1ccc2c(c1)N(S(=O)(=O)c1cccc(C(F)(F)F)c1)C[C@H](CCC(=O)O)O2 [Compound 4AE, (S)-3-(6-(2-methylpyridin-3-yl)-4-((3-(trifluoromethyl)-phenyl)sulfonyl)-3,4-dihydro-2H-benzo[b][1,4]oxazin-2-yl)propanoic acid] | 5.30 to 6.30 | > 6.30 |  | ** (The symbol “**” indicates a value in the range of greater than 90 to 150) | **** (The symbol “****” indicates a value greater than 200) |  |
| O=C(O)CC[C@H]1CN(S(=O)(=O)c2cccc(C(F)(F)F)c2)c2cc(-c3cccnc3Cl)ccc2O1 [Compound 2BE, (S)-3-(6-(2-chloropyridin-3-yl)-4-((3-(trifluoromethyl)phenyl)-sulfonyl)-3,4-dihydro-2H-benzo[b][1,4]oxazin-2-yl)propanoic acid] | 5.30 to 6.30 | > 6.30 |  | ** (The symbol “**” indicates a value in the range of greater than 90 to 150) | **** (The symbol “****” indicates a value greater than 200) |  |

Further lines, with some results ahead:

| pEC50 (Gal4-RORγ-LBD; [1]) | pEC50 (RORγ-LBD) | pEC50 (Gal4-RORγ-LBD; 2 μM ursolic acid) | SMILES | Gal4-RORγ Assay Max Response (Gal4-RORγ-LBD; [1]) | TR-FRET Assay Max Response (RORγ-LBD) | Gal4-RORγ Assay Max Response (Gal4-RORγ-LBD; 2 μM ursolic acid) |
| --- | --- | --- | --- | --- | --- | --- |
|  | > 6.30 | > 6.30 | C=CCC(=O)NC[C@H]1CN(S(=O)(=O)c2cccc(C(F)(F)F)c2)c2cc(-c3cc(F)cc(OC(F)F)c3)ccc2O1 [Compound 30DI, (S)-N-((6-(3-(difluoromethoxy)-5-fluorophenyl)-4-((3-(trifluoro-methyl)phenyl)sulfonyl)-3,4-dihydro-2H-benzo[b][1,4]-oxazin-2-yl)methyl)but-3-enamide] |  | *** (The symbol “***” indicates a value in the range of greater than 150 to 200) | * (The symbol “*” indicates a value in the range of 25 to 90) |
|  | > 6.30 | > 6.30 | CC(C)(C[C@H]1CN(S(=O)(=O)c2cccc(C(F)(F)F)c2)c2cc(-c3cccc4c3OC(F)(F)O4)ccc2O1)C(=O)O [Compound 32AC, (S)-3-(6-(2,2-difluorobenzo[d]-[1,3]dioxol-4-yl)-4-((3-(trifluoro-methyl)phenyl)sulfonyl)-3,4-dihydro-2H-benzo[b][1,4]oxazin-2-yl)-2,2-dimethylpropanoic acid] |  | *** (The symbol “***” indicates a value in the range of greater than 150 to 200) | ** (The symbol “**” indicates a value in the range of greater than 90 to 150) |
|  | > 6.30 | > 6.30 | CC(C)(C[C@H]1CN(S(=O)(=O)c2cccc(C(F)(F)F)c2)c2cc(-c3cccc(F)c3C(F)(F)F)ccc2O1)C(=O)O [Compound 32BC, (S)-3-(6-(3-fluoro-2-(trifluoromethyl)phenyl)-4-((3-(trifluoromethyl)phenyl)sulfonyl)-3,4-dihydro-2H-benzo[b][1,4]oxazin-2-yl)-2,2-dimethylpropanoic acid] |  | ** (The symbol “**” indicates a value in the range of greater than 90 to 150) | ** (The symbol “**” indicates a value in the range of greater than 90 to 150) |
|  | > 6.30 | > 6.30 | O=C(O)C1(C[C@H]2CN(S(=O)(=O)c3cccc(C(F)(F)F)c3)c3cc(-c4cccc(C(F)(F)F)n4)ccc3O2)CCC1 [Compound 32BL, (S)-l-((4-((3-(trifluoromethyl)-phenyl)sulfonyl)-6-(6-(trifluoro-methyl)pyridin-2-yl)-3,4-dihydro-2H-benzo[b][1,4]oxazin-2-yl)methyl)cyclobutane-1-carboxylic acid] |  | ** (The symbol “**” indicates a value in the range of greater than 90 to 150) | * (The symbol “*” indicates a value in the range of 25 to 90) |
| > 6.30 | > 6.30 |  | COc1cc(F)cc(-c2ccc3c(c2)N(S(=O)(=O)c2cccc(C(F)(F)F)c2)C[C@H](CC(C)(C)C(=O)O)O3)c1F [Compound 32C, (S)-3-(6-(2,5-difluoro-3-methoxyphenyl)-4-((3-(trifluoromethyl)phenyl)sulfonyl)-3,4-dihydro-2H-benzo[b][1,4]oxazin-2-yl)-2,2-dimethylpropanoic acid] | ** (The symbol “**” indicates a value in the range of greater than 90 to 150) | **** (The symbol “****” indicates a value greater than 200) |  |
|  | > 6.30 | > 6.30 | CC(C)(F)C(=O)NC[C@H]1CN(S(=O)(=O)c2cccc(C(F)(F)F)c2)c2cc(-c3cccc(F)c3Cl)ccc2O1 [Compound 30BZ, (S)-N-((6-(2-chloro-3-fluoro-phenyl)-4-((3-(trifluoromethyl)-phenyl)sulfonyl)-3,4-dihydro-2H-benzo[b][1,4]oxazin-2-yl)methyl)-2-fluoro-2-methylpropanamide] |  | **** (The symbol “****” indicates a value greater than 200) | * (The symbol “*” indicates a value in the range of 25 to 90) |
| > 6.30 | > 6.30 |  | O=C(NC[C@H]1CN(S(=O)(=O)c2cccc(C(F)(F)F)c2)c2cc(-c3cc(F)ccc3F)ccc2O1)C1(O)CC1 [Compound 30AG, (S)-N-((6-(2,5-difluorophenyl)-4-((3-(trifluoromethyl)phenyl)-sulfonyl)-3,4-dihydro-2H-benzo[b][1,4]oxazin-2-yl)methyl)-1-hydroxycyclo-propane-1-carboxamide] | ** (The symbol “**” indicates a value in the range of greater than 90 to 150) | *** (The symbol “***” indicates a value in the range of greater than 150 to 200) |  |
| > 6.30 | > 6.30 |  | O=C(NC[C@H]1CN(S(=O)(=O)c2cccc(C(F)(F)F)c2)c2cc(-c3cc(F)ccc3F)ccc2O1)c1cc[nH]n1 [Compound 30AD, (S)-N-((6-(2,5-difluorophenyl)-4-((3-(trifluoromethyl)phenyl)-sulfonyl)-3,4-dihydro-2H-benzo[b][1,4]oxazin-2-yl)methyl)-1H-pyrazole-3-carboxamide] | * (The symbol “*” indicates a value in the range of 25 to 90) | **** (The symbol “****” indicates a value greater than 200) |  |
| > 6.30 | > 6.30 |  | CC(C)(CC[C@H]1CN(S(=O)(=O)c2cccc(C(F)(F)F)c2)c2cc(-c3cc(F)ccc3F)ccc2O1)C(=O)O [Compound 32A, (S)-4-(6-(2,5-difluorophenyl)-4-((3-(trifluoromethyl)phenyl)-sulfonyl)-3,4-dihydro-2H-benzo[b][1,4]oxazin-2-yl)-2,2-dimethylbutanoic acid] | ** (The symbol “**” indicates a value in the range of greater than 90 to 150) | **** (The symbol “****” indicates a value greater than 200) |  |
